Assays:
[1] = biological target: T1, WEE1 (Homo sapiens, UniProt P30291+Q96SW2); test: Western-blot assay, substrate protein degradation in hPBMCs: WEE1; type: cell-based; conditions: for substrate protein remaining % WEE1: 24 hours of compound treatment, 50 nM and 500 nM; for WEE1 substrate protein remaining %: compounds at 50 nM and 500 nM, 24 hours
T1 construct: effects of the compounds of the present disclosure on the expression of target proteins in cells; endogenous in cells; host or cells: human PBMCs (hPBMCs)

[2] = biological target: T2, IKZF1 (Homo sapiens, UniProt Q13422+Q96SW2); test: Western-blot assay, substrate protein degradation in hPBMCs: IKZF1; type: cell-based; conditions: for substrate protein remaining % IKZF1: 24 hours of compound treatment, 50 nM and 500 nM; for IKZF1 substrate protein remaining %: compounds at 50 nM and 500 nM, 24 hours
T2 construct: effects of the compounds of the present disclosure on the expression of target proteins in cells; endogenous in cells; host or cells: human PBMCs (hPBMCs)

[3] = biological target: T3, IKZF2 (Homo sapiens, UniProt Q96SW2+Q9UKS7); test: Western-blot assay, substrate protein degradation in hPBMCs: IKZF2; type: cell-based; conditions: for substrate protein remaining % IKZF2: 24 hours of compound treatment, 50 nM and 500 nM; for IKZF2 substrate protein remaining %: compounds at 50 nM and 500 nM, 24 hours
T3 construct: effects of the compounds of the present disclosure on the expression of target proteins in cells; endogenous in cells; host or cells: human PBMCs (hPBMCs)

[4] = biological target: T4, IKZF3 (Homo sapiens, UniProt Q96SW2+Q9UKT9); test: Western-blot assay, substrate protein degradation in hPBMCs: IKZF3; type: cell-based; conditions: for substrate protein remaining % IKZF3: 24 hours of compound treatment, 50 nM and 500 nM; for IKZF3 substrate protein remaining %: compounds at 50 nM and 500 nM, 24 hours
T4 construct: effects of the compounds of the present disclosure on the expression of target proteins in cells; endogenous in cells; host or cells: human PBMCs (hPBMCs)

[5] = biological target: T5, CK1α (Homo sapiens, UniProt P48729+Q96SW2); test: Western-blot assay, substrate protein degradation in hPBMCs: CK1α; type: cell-based; conditions: for substrate protein remaining % CK1α: 24 hours of compound treatment, 50 nM and 500 nM; for CK1α substrate protein remaining %: compounds at 50 nM and 500 nM, 24 hours
T5 construct: effects of the compounds of the present disclosure on the expression of target proteins in cells; endogenous in cells; host or cells: human PBMCs (hPBMCs)

[6] = biological target: T6, GSPT1 (Homo sapiens, UniProt P15170+Q96SW2); test: Western-blot assay, substrate protein degradation in hPBMCs: GSPT1; type: cell-based; conditions: for substrate protein remaining % GSPT1: 24 hours of compound treatment, 50 nM and 500 nM; for GSPT1 substrate protein remaining %: compounds at 50 nM and 500 nM, 24 hours
T6 construct: effects of the compounds of the present disclosure on the expression of target proteins in cells; endogenous in cells; host or cells: human PBMCs (hPBMCs)

[7] = system: H292; test: Cell viability assay (CellTiter-Meiluncell Luminescent), tumor cell proliferation, H292; conditions: Homo sapiens, NCI-H292, 96 h; for inhibition at 0.01 µM: read-out: Inhibition Rate at 10 nM (%); for inhibition at 0.5 µM: read-out: Inhibition Rate at 500 nM (%)
[8] = system: MM.1S; test: Cell viability assay (CellTiter-Meiluncell Luminescent), tumor cell proliferation, MM.1S; conditions: Homo sapiens, MM1.S, 96 h; for inhibition at 0.01 µM: read-out: Inhibition Rate at 10 nM (%); for inhibition at 0.5 µM: read-out: Inhibition Rate at 500 nM (%); for IC50: read-out: inhibitory activity (IC50, nM) against tumor cells proliferation, MM.1S
[9] = system: MV-4-11; test: Cell viability assay (CellTiter-Meiluncell Luminescent), tumor cell proliferation, MV-4-11; conditions: Homo sapiens, MV4-11, 96 h; for inhibition at 0.01 µM: read-out: Inhibition Rate at 10 nM (%); for inhibition at 0.5 µM: read-out: Inhibition Rate at 500 nM (%)

T2 sequence (Q13422 whole entry): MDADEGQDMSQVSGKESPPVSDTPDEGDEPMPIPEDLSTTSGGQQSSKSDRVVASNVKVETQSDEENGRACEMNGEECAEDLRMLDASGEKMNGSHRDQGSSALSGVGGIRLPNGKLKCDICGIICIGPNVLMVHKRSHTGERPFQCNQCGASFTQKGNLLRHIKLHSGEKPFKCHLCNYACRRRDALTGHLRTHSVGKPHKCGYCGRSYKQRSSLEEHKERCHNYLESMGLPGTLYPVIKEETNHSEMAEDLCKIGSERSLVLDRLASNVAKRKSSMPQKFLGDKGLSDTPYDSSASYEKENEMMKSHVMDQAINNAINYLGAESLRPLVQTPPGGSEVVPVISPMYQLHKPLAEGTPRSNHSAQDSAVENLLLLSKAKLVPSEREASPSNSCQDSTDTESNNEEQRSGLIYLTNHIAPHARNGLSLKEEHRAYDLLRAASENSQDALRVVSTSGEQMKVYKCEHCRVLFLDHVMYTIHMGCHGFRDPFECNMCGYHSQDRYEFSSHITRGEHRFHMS
T2 sequence (Q96SW2 whole entry): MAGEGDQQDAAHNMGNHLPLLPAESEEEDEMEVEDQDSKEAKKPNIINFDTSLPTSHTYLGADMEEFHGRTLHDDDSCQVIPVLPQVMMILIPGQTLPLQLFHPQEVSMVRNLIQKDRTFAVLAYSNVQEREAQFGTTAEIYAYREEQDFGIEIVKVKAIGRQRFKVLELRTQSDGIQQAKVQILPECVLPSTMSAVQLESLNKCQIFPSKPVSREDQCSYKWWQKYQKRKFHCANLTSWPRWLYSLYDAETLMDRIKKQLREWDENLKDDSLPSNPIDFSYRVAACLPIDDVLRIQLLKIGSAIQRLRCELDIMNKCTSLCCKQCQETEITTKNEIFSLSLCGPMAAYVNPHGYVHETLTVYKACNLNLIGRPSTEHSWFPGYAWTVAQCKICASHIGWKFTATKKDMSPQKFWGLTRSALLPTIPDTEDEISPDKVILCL
T2 sequence (Q16531 whole entry partner): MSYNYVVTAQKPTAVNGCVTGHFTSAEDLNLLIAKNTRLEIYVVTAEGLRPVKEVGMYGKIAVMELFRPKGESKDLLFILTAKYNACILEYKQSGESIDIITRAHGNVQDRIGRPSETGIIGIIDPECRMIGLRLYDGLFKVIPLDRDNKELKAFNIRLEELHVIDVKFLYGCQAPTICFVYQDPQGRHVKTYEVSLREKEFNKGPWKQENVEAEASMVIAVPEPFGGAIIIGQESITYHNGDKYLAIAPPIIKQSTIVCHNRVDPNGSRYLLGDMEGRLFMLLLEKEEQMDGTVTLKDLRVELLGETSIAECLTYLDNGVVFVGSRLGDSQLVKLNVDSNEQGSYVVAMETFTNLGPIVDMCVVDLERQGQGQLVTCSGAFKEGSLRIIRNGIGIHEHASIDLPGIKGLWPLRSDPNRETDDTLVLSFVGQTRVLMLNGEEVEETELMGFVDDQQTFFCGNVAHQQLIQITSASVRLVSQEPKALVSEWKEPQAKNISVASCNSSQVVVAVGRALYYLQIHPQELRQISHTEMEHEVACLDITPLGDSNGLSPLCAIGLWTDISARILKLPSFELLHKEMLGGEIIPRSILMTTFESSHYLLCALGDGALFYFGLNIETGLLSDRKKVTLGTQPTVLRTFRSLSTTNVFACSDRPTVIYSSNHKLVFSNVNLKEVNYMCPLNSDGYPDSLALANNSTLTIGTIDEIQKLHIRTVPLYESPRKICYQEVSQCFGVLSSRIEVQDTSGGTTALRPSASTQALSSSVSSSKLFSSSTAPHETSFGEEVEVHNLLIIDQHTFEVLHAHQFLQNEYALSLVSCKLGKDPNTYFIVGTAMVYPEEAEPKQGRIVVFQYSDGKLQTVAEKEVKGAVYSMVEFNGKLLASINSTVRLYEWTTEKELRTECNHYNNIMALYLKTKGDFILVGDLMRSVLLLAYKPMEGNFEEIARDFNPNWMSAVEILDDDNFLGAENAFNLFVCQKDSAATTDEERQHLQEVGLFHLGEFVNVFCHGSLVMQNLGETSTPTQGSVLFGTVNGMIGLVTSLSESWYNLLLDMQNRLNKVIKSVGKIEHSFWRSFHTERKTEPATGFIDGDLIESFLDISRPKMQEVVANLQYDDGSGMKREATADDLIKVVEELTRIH
T1 sequence (P30291 whole entry): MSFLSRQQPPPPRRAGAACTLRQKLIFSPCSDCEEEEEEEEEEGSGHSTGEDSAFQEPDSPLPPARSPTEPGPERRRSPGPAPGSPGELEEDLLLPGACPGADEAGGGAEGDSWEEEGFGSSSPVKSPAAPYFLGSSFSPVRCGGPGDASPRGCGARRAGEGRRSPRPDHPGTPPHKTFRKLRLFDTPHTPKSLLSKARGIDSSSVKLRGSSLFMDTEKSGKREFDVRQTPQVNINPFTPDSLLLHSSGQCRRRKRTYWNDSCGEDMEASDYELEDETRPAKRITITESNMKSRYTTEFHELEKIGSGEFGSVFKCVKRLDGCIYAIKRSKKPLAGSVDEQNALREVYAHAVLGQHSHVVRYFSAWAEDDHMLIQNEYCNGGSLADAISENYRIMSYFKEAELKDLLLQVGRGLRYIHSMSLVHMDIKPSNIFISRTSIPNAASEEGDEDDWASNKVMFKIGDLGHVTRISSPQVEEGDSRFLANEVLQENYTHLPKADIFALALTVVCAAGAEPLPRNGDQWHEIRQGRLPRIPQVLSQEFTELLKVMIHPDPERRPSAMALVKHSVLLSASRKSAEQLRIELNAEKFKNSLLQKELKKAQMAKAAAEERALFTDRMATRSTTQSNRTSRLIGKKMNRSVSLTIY
T1 sequence (Q96SW2 whole entry): as the sequence (Q96SW2 whole entry) above
T1 sequence (Q16531 whole entry partner): as the sequence (Q16531 whole entry partner) above
T6 sequence (P15170 whole entry): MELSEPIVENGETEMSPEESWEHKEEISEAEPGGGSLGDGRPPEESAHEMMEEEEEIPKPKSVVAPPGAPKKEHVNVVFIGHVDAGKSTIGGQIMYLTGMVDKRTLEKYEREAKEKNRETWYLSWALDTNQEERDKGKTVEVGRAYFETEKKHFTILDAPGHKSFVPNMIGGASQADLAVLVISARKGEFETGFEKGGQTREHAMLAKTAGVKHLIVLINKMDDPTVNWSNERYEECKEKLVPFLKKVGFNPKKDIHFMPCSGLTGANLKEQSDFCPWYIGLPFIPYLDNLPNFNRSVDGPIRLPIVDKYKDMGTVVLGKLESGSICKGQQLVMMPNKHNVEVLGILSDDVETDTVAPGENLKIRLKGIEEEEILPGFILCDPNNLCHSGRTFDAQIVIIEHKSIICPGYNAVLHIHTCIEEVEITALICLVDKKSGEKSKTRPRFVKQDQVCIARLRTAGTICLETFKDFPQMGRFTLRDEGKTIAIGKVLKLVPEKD
T6 sequence (Q96SW2 whole entry): as the sequence (Q96SW2 whole entry) above
T6 sequence (Q16531 whole entry partner): as the sequence (Q16531 whole entry partner) above
T4 sequence (Q9UKT9 whole entry): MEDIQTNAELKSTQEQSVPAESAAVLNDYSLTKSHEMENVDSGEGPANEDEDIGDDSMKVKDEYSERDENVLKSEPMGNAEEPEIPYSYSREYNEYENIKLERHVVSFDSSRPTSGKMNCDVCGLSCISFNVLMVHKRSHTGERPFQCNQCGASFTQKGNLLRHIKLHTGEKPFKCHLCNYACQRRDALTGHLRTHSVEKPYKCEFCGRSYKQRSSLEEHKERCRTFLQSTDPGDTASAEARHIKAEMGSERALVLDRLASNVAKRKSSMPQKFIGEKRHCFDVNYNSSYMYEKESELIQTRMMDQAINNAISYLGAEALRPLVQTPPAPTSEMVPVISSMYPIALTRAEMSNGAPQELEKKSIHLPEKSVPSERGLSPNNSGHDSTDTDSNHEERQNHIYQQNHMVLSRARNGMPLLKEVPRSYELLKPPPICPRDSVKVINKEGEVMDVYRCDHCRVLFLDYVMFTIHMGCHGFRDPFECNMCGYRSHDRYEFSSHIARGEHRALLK
T4 sequence (Q96SW2 whole entry): as the sequence (Q96SW2 whole entry) above
T4 sequence (Q16531 whole entry partner): as the sequence (Q16531 whole entry partner) above
T5 sequence (P48729 whole entry): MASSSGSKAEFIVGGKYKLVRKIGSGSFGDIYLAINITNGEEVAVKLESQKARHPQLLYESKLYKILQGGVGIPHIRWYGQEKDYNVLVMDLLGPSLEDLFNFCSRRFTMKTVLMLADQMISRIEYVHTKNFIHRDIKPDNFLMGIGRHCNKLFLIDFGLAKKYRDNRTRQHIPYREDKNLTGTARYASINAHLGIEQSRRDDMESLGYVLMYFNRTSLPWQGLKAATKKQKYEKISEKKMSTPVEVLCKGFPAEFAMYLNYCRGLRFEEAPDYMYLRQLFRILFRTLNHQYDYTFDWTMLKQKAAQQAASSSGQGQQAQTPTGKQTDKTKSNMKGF
T5 sequence (Q96SW2 whole entry): as the sequence (Q96SW2 whole entry) above
T5 sequence (Q16531 whole entry partner): as the sequence (Q16531 whole entry partner) above

| IC50 [8] [nM] | Compound | substrate protein remaining % WEE1 [1] | substrate protein remaining % IKZF1 [2] | substrate protein remaining % IKZF2 [3] | substrate protein remaining % IKZF3 [4] | substrate protein remaining % CK1α [5] | substrate protein remaining % GSPT1 [6] | inhibition at 0.01 µM [7] [%] | inhibition at 0.5 µM [7] [%] | inhibition at 0.01 µM [8] [%] | inhibition at 0.5 µM [8] [%] | inhibition at 0.01 µM [9] [%] | inhibition at 0.5 µM [9] [%] | WEE1 substrate protein remaining % [1] | IKZF1 substrate protein remaining % [2] | IKZF2 substrate protein remaining % [3] | IKZF3 substrate protein remaining % [4] | CK1α substrate protein remaining % [5] | GSPT1 substrate protein remaining % [6] |
| --- | --- | --- | --- | --- | --- | --- | --- | --- | --- | --- | --- | --- | --- | --- | --- | --- | --- | --- | --- |
|  | O=C1CCN(N2Cc3cc(CN4CCN(c5nc(N6CCOCC6)nc6ccsc56)CC4)ccc3C2=O)C(=O)N1 [GT-08446, 1-(5-((4-(2-morpholinothieno[3,2-d]pyrimidin-4-yl)piperazin-1-yl)methyl)-1-oxoisoindolin-2-yl)dihydropyrimidine-2,4(1H,3H)-dione] | B (80%< substrate protein remaining %≤ 100%) | B (80%< substrate protein remaining %≤ 100%) | B (80%< substrate protein remaining %≤ 100%) | A (0% ≤ substrate protein remaining % ≤ 80%) | B (80%< substrate protein remaining %≤ 100%) | A (0% ≤ substrate protein remaining % ≤ 80%) | 20 to 40 | 20 to 40 | 42 to 60 | 30 to 42 |  |  |  |  |  |  |  |  |
|  | Cc1nc(N2CCN(Cc3ccc4c(c3)C(=O)N(N3CCC(=O)NC3=O)C4=O)CC2)c2c3c(sc2n1)CCC3 [GT-08104, 2-(2,4-dioxotetrahydropyrimidin-1(2H)-yl)-5-((4-(2-methyl-6,7-dihydro-5H-cyclopenta[4,5]thieno[2,3-d]pyrimidin-4-yl)piperazin-1-yl)methyl)isoindoline-1,3-dione] | A (0% ≤ substrate protein remaining % ≤ 80%) | B (80%< substrate protein remaining %≤ 100%) | A (0% ≤ substrate protein remaining % ≤ 80%) | A (0% ≤ substrate protein remaining % ≤ 80%) | B (80%< substrate protein remaining %≤ 100%) | A (0% ≤ substrate protein remaining % ≤ 80%) |  |  | 20 to 30 | 30 to 42 | 40 to 60 | 40 to 60 |  |  |  |  |  |  |
|  | Cc1nc(C2=CCN(Cc3ccc4c(c3)CN(N3CCC(=O)NC3=O)C4=O)CC2)c2ccsc2n1 [GT-08175, 1-(5-((4-(2-methylthieno[2,3-d]pyrimidin-4-yl)-3,6-dihydropyridin-1(2H)-yl)methyl)-1-oxoisoindolin-2-yl)dihydropyrimidine-2,4(1H,3H)-dione] |  |  |  |  |  |  |  |  | -10 to -5 | 80 to 100 | 18 to 25 | 80 to 100 |  |  |  |  |  |  |
|  | Cc1nc(C2=CCN(Cc3ccc4c(c3)C(=O)N(N3CCC(=O)NC3=O)C4=O)CC2)c2c(-c3ccccc3)csc2n1 [GT-08484, 2-(2,4-dioxotetrahydropyrimidin-1(2H)-yl)-5-((4-(2-methyl-5-phenylthieno[2,3-d]pyrimidin-4-yl)-3,6-dihydropyridin-1(2H)-yl)methyl)isoindoline-1,3-dione] | A (0% ≤ substrate protein remaining % ≤ 80%) | A (0% ≤ substrate protein remaining % ≤ 80%) | A (0% ≤ substrate protein remaining % ≤ 80%) | A (0% ≤ substrate protein remaining % ≤ 80%) | A (0% ≤ substrate protein remaining % ≤ 80%) | A (0% ≤ substrate protein remaining % ≤ 80%) | 20 to 40 | 15 to 20 | 42 to 60 | 20 to 30 |  |  |  |  |  |  |  |  |
|  | O=C1CCN(N2Cc3cc(CN4CC=C(c5ncc6ccsc6n5)CC4)ccc3C2=O)C(=O)N1 [GT-08438, 1-(1-oxo-5-((4-(thieno[2,3-d]pyrimidin-2-yl)-3,6-dihydropyridin-1(2H)-yl)methyl)isoindolin-2-yl)dihydropyrimidine-2,4(1H,3H)-dione] | A (0% ≤ substrate protein remaining % ≤ 80%) | A (0% ≤ substrate protein remaining % ≤ 80%) | B (80%< substrate protein remaining %≤ 100%) | A (0% ≤ substrate protein remaining % ≤ 80%) | B (80%< substrate protein remaining %≤ 100%) | A (0% ≤ substrate protein remaining % ≤ 80%) | 20 to 40 | 10 to 15 | 20 to 30 | 80 to 100 |  |  |  |  |  |  |  |  |
| 300 to 500 | O=C1CCN(N2Cc3cc(CN4CCN(c5cccc(Cl)n5)CC4)ccc3C2=O)C(=O)N1 [GT-05126, 1-(5-((4-(6-chloropyridin-2-yl)piperazin-1-yl)methyl)-1-oxoisoindolin-2-yl)dihydropyrimidine-2,4(1H,3H)-dione] |  |  |  |  |  |  |  |  |  |  |  |  | A ("A" is defined as 0% ≤ substrate protein remaining % ≤ 80%) | A ("A" is defined as 0% ≤ substrate protein remaining % ≤ 80%) | A ("A" is defined as 0% ≤ substrate protein remaining % ≤ 80%) | A ("A" is defined as 0% ≤ substrate protein remaining % ≤ 80%) | A ("A" is defined as 0% ≤ substrate protein remaining % ≤ 80%) | A ("A" is defined as 0% ≤ substrate protein remaining % ≤ 80%) |
|  | O=C1CCN(N2C(=O)c3ccc(CN4CC=C(c5ncnc6sc7c(c56)CCCC7)CC4)cc3C2=O)C(=O)N1 [GT-08433, 2-(2,4-dioxotetrahydropyrimidin-1(2H)-yl)-5-((4-(5,6,7,8-tetrahydrobenzo[4,5]thieno[2,3-d]pyrimidin-4-yl)-3,6-dihydropyridin-1(2H)-yl)methyl)isoindoline-1,3-dione] | B (80%< substrate protein remaining %≤ 100%) | B (80%< substrate protein remaining %≤ 100%) | B (80%< substrate protein remaining %≤ 100%) | A (0% ≤ substrate protein remaining % ≤ 80%) | A (0% ≤ substrate protein remaining % ≤ 80%) | A (0% ≤ substrate protein remaining % ≤ 80%) | 20 to 40 | 15 to 20 | 20 to 30 | 30 to 42 |  |  |  |  |  |  |  |  |
| 500 to 1000 | O=C1CCN(N2Cc3cc(CN4CCN(c5ccc(Cl)cn5)CC4)ccc3C2=O)C(=O)N1 [GT-05127, 1-(5-((4-(5-chloropyridin-2-yl)piperazin-1-yl)methyl)-1-oxoisoindolin-2-yl)dihydropyrimidine-2,4(1H,3H)-dione] |  |  |  |  |  |  |  |  |  |  |  |  | A ("A" is defined as 0% ≤ substrate protein remaining % ≤ 80%) | A ("A" is defined as 0% ≤ substrate protein remaining % ≤ 80%) | B ("B" is defined as 80%< substrate protein remaining %≤ 100%) | A ("A" is defined as 0% ≤ substrate protein remaining % ≤ 80%) | A ("A" is defined as 0% ≤ substrate protein remaining % ≤ 80%) | A ("A" is defined as 0% ≤ substrate protein remaining % ≤ 80%) |
| 500 to 1000 | O=C1CCN(N2Cc3cc(CN4C[C@@H]5C[C@H]4CN5c4cccc(Cl)c4Cl)ccc3C2=O)C(=O)N1 [GT-05163, 1-(5-(((1S,4S)-5-(2,3-dichlorophenyl)-2,5-diazabicyclo[2.2.1]heptan-2-yl)methyl)-1-oxoisoindolin-2-yl)dihydropyrimidine-2,4(1H,3H)-dione] |  |  |  |  |  |  |  |  |  |  |  |  | B ("B" is defined as 80%< substrate protein remaining %≤ 100%) | A ("A" is defined as 0% ≤ substrate protein remaining % ≤ 80%) | A ("A" is defined as 0% ≤ substrate protein remaining % ≤ 80%) | A ("A" is defined as 0% ≤ substrate protein remaining % ≤ 80%) | B ("B" is defined as 80%< substrate protein remaining %≤ 100%) | A ("A" is defined as 0% ≤ substrate protein remaining % ≤ 80%) |

| Compound | IC50 [8] [nM] | substrate protein remaining % WEE1 [1] | substrate protein remaining % IKZF1 [2] | substrate protein remaining % IKZF2 [3] | substrate protein remaining % IKZF3 [4] | substrate protein remaining % CK1α [5] | substrate protein remaining % GSPT1 [6] | inhibition at 0.01 µM [7] [%] | inhibition at 0.5 µM [7] [%] | inhibition at 0.01 µM [8] [%] | inhibition at 0.5 µM [8] [%] | inhibition at 0.01 µM [9] [%] | inhibition at 0.5 µM [9] [%] | WEE1 substrate protein remaining % [1] | IKZF1 substrate protein remaining % [2] | IKZF2 substrate protein remaining % [3] | IKZF3 substrate protein remaining % [4] | CK1α substrate protein remaining % [5] | GSPT1 substrate protein remaining % [6] |
| --- | --- | --- | --- | --- | --- | --- | --- | --- | --- | --- | --- | --- | --- | --- | --- | --- | --- | --- | --- |
| O=C1CCN(N2Cc3cc(CN4CC=C(c5nccc(Cl)c5Cl)CC4)ccc3C2=O)C(=O)N1 [GT-06392, 1-(5-((3,4-dichloro-3',6'-dihydro-[2,4'-bipyridin]-1'(2'H)-yl)methyl)-1-oxoisoindolin-2-yl)dihydropyrimidine-2,4(1H,3H)-dione] | 300 to 500 |  |  |  |  |  |  |  |  |  |  |  |  | A ("A" is defined as 0% ≤ substrate protein remaining % ≤ 80%) | B ("B" is defined as 80%< substrate protein remaining %≤ 100%) | A ("A" is defined as 0% ≤ substrate protein remaining % ≤ 80%) | A ("A" is defined as 0% ≤ substrate protein remaining % ≤ 80%) | A ("A" is defined as 0% ≤ substrate protein remaining % ≤ 80%) | A ("A" is defined as 0% ≤ substrate protein remaining % ≤ 80%) |

Reference: patent EP4722207A1, “OXOISOINDOLINYL-SUBSTITUTED TETRAHYDROPYRIMIDINEDIONE DERIVATIVE AND USE THEREOF” (Gluetacs Therapeutics (Shanghai) Co., Ltd., priority 2023, dated 2024)
